Results: patent US20250275959A1, “COMPOUNDS AND METHODS OF THEIR USE” (LEXICON PHARMACEUTICALS, INC., priority 2024, published 2025)
Entries after “also recorded” stand apart in the source; their conditions may differ. Blank lines part the entries; values can stand above or below the molecule they belong to.

Key:
[1] = Murine diet-induced obesity (DIO) model, Compound A study; type: in vivo, C57BL/6J mice; settings: DIO mice
Description: The effects of four representative compounds of the invention were tested in a mouse model of diet-induced obesity (DIO): • Compound A is (R)—N-(tert-butylsulfonyl)-4-(1-(5-(pyridin-3-yloxy)pyridin-2-yl)ethoxy)-3-(trifluoromethyl)benzamide; • Compound B is (R)-4-(1-(5-(cyclopropylmethoxy)pyridin-2-yl)propoxy)-N-((4-(2-(dimethylamino)ethoxy)phenyl)sulfonyl)-2,3-difluorobenzamide; • Compound C is (R)—N-((4-(2-(dimethylamino)ethoxy)piperidin-1l-yl)sulfonyl)-2,3-difluoro-4-(1-(5-(pyridin-2-yloxy)pyridin-2-yl)propoxy)benzamide; and • Compound D is (R)-2,3-difluoro-N-((4-methylpiperazin-1-yl)sulfonyl)-4-(1-(5-(pyridin-2-yloxy)pyridin-2-yl)propoxy)benzamide.
The mice used in these experiments were C57BL/6J mice fed a high-fat diet (D12492 from Research Diets) ad libitum during the study period. The vehicle and test article formulations were 10% w/v Solutol in water.
After a seven-day acclimation period, the DIO model was induced by putting the mice on a high fat diet for ten weeks. After the ten weeks, the DIO mice were equally divided into groups based on body weight, ten mice in each group: the control group (Vehicle) and Compound A at 30 mg/kg.
The animals were pre-dosed for two days prior to formal dosing (once-per-day treatment for every group). From Day 1 to Day 13, the animals in the dosing group were administered orally by gavage at 5:00 p.m. every day as well as weight and food intake were recorded daily. All animals were fasted overnight after dosing on Day 1, Day 4, Day 12 and Day 13, then the blood (retro-orbital bleed) of mice from each group was collected at 7:00 a.m. to separate out the serum on Day 2, Day 5 and Day 13 for measuring total cholesterol levels (TC), triglyceride (TG), aminotransferase alanine (ALT), aspartate aminotransferase (AST) and total bilirubin (TBil) levels. All animals were performed OGTT test (0 min, 30 min, 60 min and 120 min) and measured insulin levels (0 min and 30 min) on Day 14.
• 1. Body weight and Food Consumption: Pre-dose every day starting from Day −1 onwards. • 2. Day −1 and Day 0: Handle mice and gavage with vehicle. • 3. Day 1: Dose˜5:00 PM. Fast overnight. • 4. Day 2: Determine total cholesterol levels and triglyceride, ALT, AST, Total Bilirubin levels 7:00 AM. Resume feeding. • 5. Day 2-3: Dose˜5:00 PM. • 6. Day 4: Dose˜5:00 PM. Fast overnight. • 7. Day 5: Determine total cholesterol levels and triglyceride, ALT, AST, Total Bilirubin levels˜7:00 AM. Resume feeding. • 8. Day 5˜11: Dose˜5:00 PM. • 9. Day 12: Dose˜5:00 PM. Fast overnight. • 10. Day 13: Determine total cholesterol levels and triglyceride, ALT, AST, Total Bilirubin levels 7:00 AM. Resume feeding. • 11. Day 13: Dose˜5:00 PM. Fast overnight. • 12. Day 14: (No drug administration) Oral glucose tolerance test with glucose levels measured at Pre-dose, 30 min, 60 min and 120 min. And insulin levels at Time 0 min, 30 min after the glucose challenge.
Data was provided as mean±SD. Statistical significance was considered when the P value is less than 0.05. Results were analyzed by SPSS software. […]. T-test was used to calculate P value. […]

[2] = biological target: T1, hACSL5 (Homo sapiens (Human), UniProt Q9ULC5); test: Cell-based assay (CBA) with B12FA in hACSL5-transfected Expi293F / FlpIn TRex293 cells; settings: hACSL5-expressing cells
Outline: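 hACSL5-expressing Expi293F or tetracycline-induced FlpIn TRex293 cells, serum- and glucose-starved 1 h, then treated 3 h with serially diluted compound plus 20 µM B12FA. After fixation, 630/520 nm emission ratio (ex 485 nm) gave % inhibition versus no-inhibitor and 10 µM compound/non-induced controls; IC50 by Hill fit.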
Target sequence in this assay (Q9ULC5 whole entry): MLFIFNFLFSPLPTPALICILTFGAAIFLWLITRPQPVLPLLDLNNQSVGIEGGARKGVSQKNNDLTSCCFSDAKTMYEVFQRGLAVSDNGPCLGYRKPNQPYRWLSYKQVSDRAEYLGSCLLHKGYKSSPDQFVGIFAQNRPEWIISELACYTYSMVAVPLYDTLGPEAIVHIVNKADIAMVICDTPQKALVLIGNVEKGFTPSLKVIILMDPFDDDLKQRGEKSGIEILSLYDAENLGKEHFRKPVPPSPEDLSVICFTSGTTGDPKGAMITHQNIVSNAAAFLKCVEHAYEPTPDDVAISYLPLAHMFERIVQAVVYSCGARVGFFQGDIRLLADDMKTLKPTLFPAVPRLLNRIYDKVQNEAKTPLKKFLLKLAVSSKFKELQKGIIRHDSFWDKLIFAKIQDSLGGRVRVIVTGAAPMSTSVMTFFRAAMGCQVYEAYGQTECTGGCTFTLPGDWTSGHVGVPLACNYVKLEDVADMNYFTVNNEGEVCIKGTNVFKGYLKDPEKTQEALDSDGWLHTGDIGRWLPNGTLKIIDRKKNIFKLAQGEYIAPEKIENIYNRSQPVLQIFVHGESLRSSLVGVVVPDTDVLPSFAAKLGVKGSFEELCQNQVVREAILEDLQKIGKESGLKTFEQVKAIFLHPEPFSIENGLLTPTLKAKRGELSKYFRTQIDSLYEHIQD

[3] = biological target: T1, hACSL5; test: Human ACSL5 coupled enzyme Amplex Red assay; type: biochemical; settings: read-out: hACSL5 IC50
Outline: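 Amplex Red coupled readout: 1 mM ATP, 25 μM oleate and 30 μM CoA were added to compound-preincubated enzyme (20 nM, residues 33-683, insect-cell expressed, His-tagged) with coupling peroxidase and acyl-CoA oxidase at pH 7.6. Signal was read at 535/590 nm after 10 minutes at 25° C., and Hill fits yielded half-maximal and maximal inhibition.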
Target sequence in this assay (Q9ULC5 33-683): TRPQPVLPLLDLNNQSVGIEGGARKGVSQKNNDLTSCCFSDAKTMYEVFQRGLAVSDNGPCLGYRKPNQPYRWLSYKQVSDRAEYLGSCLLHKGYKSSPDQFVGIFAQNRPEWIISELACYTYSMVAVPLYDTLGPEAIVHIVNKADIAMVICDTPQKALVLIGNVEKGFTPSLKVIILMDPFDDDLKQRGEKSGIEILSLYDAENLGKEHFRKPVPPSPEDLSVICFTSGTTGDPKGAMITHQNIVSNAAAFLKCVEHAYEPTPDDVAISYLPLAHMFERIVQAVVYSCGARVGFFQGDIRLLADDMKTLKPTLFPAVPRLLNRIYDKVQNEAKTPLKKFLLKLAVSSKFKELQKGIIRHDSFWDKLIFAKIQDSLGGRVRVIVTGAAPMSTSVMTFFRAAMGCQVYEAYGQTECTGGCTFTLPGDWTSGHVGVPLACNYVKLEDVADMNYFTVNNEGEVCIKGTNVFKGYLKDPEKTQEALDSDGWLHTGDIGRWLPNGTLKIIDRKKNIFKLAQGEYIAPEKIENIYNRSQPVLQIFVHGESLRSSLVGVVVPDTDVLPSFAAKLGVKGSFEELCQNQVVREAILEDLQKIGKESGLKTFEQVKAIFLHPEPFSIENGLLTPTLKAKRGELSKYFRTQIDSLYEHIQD

Structure (SMILES): C[C@@H](Oc1ccc(C(=O)NS(=O)(=O)C(C)(C)C)cc1C(F)(F)F)c1ccc(Oc2cccnc2)cn1 [Compound A, (R)—N-(tert-butylsulfonyl)-4-(1-(5-(pyridin-3-yloxy)pyridin-2-yl)ethoxy)-3-(trifluoromethyl)benzamide]
Body Weight (g)/Day ([1]; 30 mg/kg oral daily, Day 1): 37.9 ± 1.4 g
Body Weight (g)/Day ([1]; 30 mg/kg oral daily, Day 2): 36.6 ± 1.4 g
Body Weight (g)/Day ([1]; 30 mg/kg oral daily, Day 3): 35.8 ± 1.5 g
Body Weight (g)/Day ([1]; 30 mg/kg oral daily, Day 4): 35.3 ± 1.4 g
Body Weight (g)/Day ([1]; 30 mg/kg oral daily, Day 5): 34.3 ± 1.3 g
Body Weight (g)/Day ([1]; 30 mg/kg oral daily, Day 6): 34.2 ± 1.2 g
Body Weight (g)/Day ([1]; 30 mg/kg oral daily, Day 7): 34.0 ± 1.3 g
Body Weight (g)/Day ([1]; 30 mg/kg oral daily, Day 8): 33.9 ± 1.4 g
Body Weight (g)/Day ([1]; 30 mg/kg oral daily, Day 9): 33.5 ± 1.4 g
Body Weight (g)/Day ([1]; 30 mg/kg oral daily, Day 10): 33.4 ± 1.3 g
Body Weight (g)/Day ([1]; 30 mg/kg oral daily, Day 11): 32.9 ± 1.4 g
Body Weight (g)/Day ([1]; 30 mg/kg oral daily, Day 12): 32.8 ± 1.3 g
mean body weight versus control group ([1]; 30 mg/kg oral daily, Day −1 to Day 12): significantly lower than that of the control group from Day 8 onwards; also recorded: statistically significant effect on the mice's body weights versus control
Body Weight (g)/Day ([1]; 30 mg/kg, Day 0 (pre-dose)): 38.3 ± 1.4 g
Body Weight (g)/Day ([1]; 30 mg/kg, Day −1 (pre-dose)): 38.5 ± 1.6 g

Structure (SMILES): CC[C@@H](Oc1ccc(C(=O)NS(=O)(=O)N2CCN(C3CC3)CC2)c(F)c1F)c1ccc(OC2CC(OC)C2)cn1 (stereo partly drawn) [N-((4-cyclopropylpiperazin-1-yl)sulfonyl)-2,3-difluoro-4-((R)-1-(5-((1R,3R)-3-methoxycyclobutoxy)pyridin-2-yl)propoxy)benzamide]
IC50 [2]: 100 to 500 nM
IC50 [3]: < 100 nM

IC50 [2]: < 100 nM
IC50 [3]: < 100 nM
Structure (SMILES): CC[C@@H](Oc1ccc(C(=O)NS(=O)(=O)N2CCN(C)[C@@H](C)C2)c(F)c1F)c1ccc(Oc2ccccn2)cn1 [N-(((S)-3,4-dimethylpiperazin-1-yl)sulfonyl)-2,3-difluoro-4-((R)-1-(5-(pyridin-2-yloxy)pyridin-2-yl)propoxy)benzamide]
